Reference: patent US10463659B2, “Multi-arm polymer prodrugs” (priority 2003, dated 2019)

Legend:
[1] = PK/PD study in HT29 colon tumor model (plasma and tumor AUC, t½); conditions: 40 mg/kg IV q4d x3, Day 1 AUC
HT29 tumor fragments = experiment: HT29 colorectal tumor xenograft, monotherapy study (Example 21); assay type: in vivo; conditions: for Tumor growth delay: HT29, all three doses tested (40, 60, or 90 mg/kg); for tolerability: all doses
From the text: HT29 tumor fragments were implanted into female, athymic nude mice in the monotherapy study. […]. Animals were weighed and tumor volumes measured twice weekly after the first drug injection in both studies.

[2] = test system: Human HT29 colon tumor xenografts; experiment: HT29 colon tumor xenograft, anti-tumor activity (Examples 2 and 6); conditions: HT29 colon tumors, 3 doses; for delay in tumor growth (anti-tumor activity) compared to the control: 60 mg/kg IV every 4 days
Protocol: Human HT29 colon tumor xenografts were subcutaneously implanted in athymic nude mice. After about two weeks of adequate tumor growth (100 to 250 mg), these animals were divided into different groups of ten mice each. […] Doses were administered intravenously, with one dose administered every 4 days for a total of 3 administered doses. The mice were observed daily and the tumors were measured with calipers twice a week.
Athymic nude mice were implanted subcutaneously with human cancer cell lines (lung cancer cell line NCl-H460, and colon cancer cell line HT-29) and the tumors allowed to grow to approximately 150 mg in size. The animals were divided into groups of ten mice each.
Tumor volume measurements were taken over a period of 60-80 days; tumor volumes were converted to tumor weight. Body weights were also measured over the same period to provide an indication of weight loss.

[3] = Toxicity: maximum tolerated dose and side-effects in rat and dog (FIG. 22); assay type: in vivo
Protocol: (§1) Additional illustrative in-vivo studies were carried out as described previously herein or in accordance with methods well-known to one having ordinary skill in the art.

[4] = PK/PD study in NCl-H460 lung tumor model (plasma and tumor AUC, t½); conditions: Day 1 AUC
[5] = Exposure to SN-38 in HT-29 colorectal tumors in mice (FIG. 20); assay type: in vivo
Protocol: as §1

[6] = Plasma levels of SN-38 in dogs (FIG. 24); assay type: in vivo
Protocol: as §1

[7] = rodents
neutrophils = experiment: Neutropenia in dogs, 4-arm-PEG-GLY-IRINO-20K vs irinotecan (FIG. 21); assay type: in vivo
Protocol: as §1

[8] = Diarrhea episodes in dogs (FIG. 23); assay type: in vivo
Protocol: as §1

MCF-7 breast tumor cells = experiment: MCF-7 breast tumor xenograft, 4-arm-PEG-gly-irino-20K vs irinotecan; assay type: in vivo, Female athymic (Nu:Nu) mice; conditions: for Days to 4 Times Tumor Size: median; for Tumor Regression Complete / Tumor Regression Partial: n=10
Protocol: Female athymic (Nu:Nu) mice were injected subcutaneously with MCF-7 breast tumor cells and the tumors were allowed to reach a median volume of 75 mm^3. […] The control group received normal saline. The animals were weighed and tumors were measured twice weekly after administration of the first drug injection.

[9] = DU-145 prostate tumor xenograft, PEG-docetaxel vs docetaxel; assay type: in vivo, mice; conditions: NCr nu/nu, mouse, in vivo, intravenous; DU-145 study, q7 d×2; read-out: tolerated dose (maximum tolerated dose)
DU-145 prostate tumors = experiment: as above; assay type: in vivo, mice; conditions: DU-145, two doses (q7 d×2)
in vivo = conditions: NCr nu/nu, mouse
From the text: Human NCl-H460 lung tumors (30 to 40 fragments of each) were implanted subcutaneously in the mice (Charles Rivers Labs: NCr nu/nu) near the right axillary area.
The animals were randomized into groups in a manner such that the median tumor weights on the first day of treatment were as close to each other as possible.
The mice received 1 or 2 intravenous doses of test compound or vehicle (saline).
The animals were weighed and the tumors measured twice weekly after administration of the first injection. The tumor volume was measured by caliper measurements (mm) and using the formula of an ellipsoid sphere: L×W^2/2=mm^3, where L and W refer to the larger and smaller perpendicular dimensions collected at each measurement. This formula was also used to calculate tumor weight assuming unit density (1 mm^3=1 mg).
Any animal found moribund or any animal whose tumor reached 4000 mg, ulcerated or was sloughed off was euthanized prior to study termination.

[10] = single dose, following PEG-Irinotecan administration

In the case of “Pentaerythritolyl-4-Arm-(PEG-1-Methylene-2Oxo-Vinylamino Acetate Linked-Irinotecan)-20K [4-arm-PEG-GLY-IRINO-20K]”, the “Exposure (AUC) of Irinotecan, Plasma” value [1] is reported as 1.5 µg·days/mL, the “Exposure (AUC) of PEG-Irinotecan, Plasma” value [1] is reported as 2143 µg·days/mL and the “Exposure (AUC) of PEG-SN38, Plasma” value [1] is reported as 784 µg·days/mL. The “Exposure (AUC) of SN38, Plasma” value [1] was 5.8 µg·days/mL, the “complete tumor regression (animals)” value (HT29 tumor fragments; HT29, 90 mg/kg dose, q4 d×3) was 3/10 and the “partial tumor regression (animals)” value (HT29 tumor fragments; HT29, 90 mg/kg dose, q4 d×3) was 1/10. The Tumor growth delay (HT29 tumor fragments; q4 d×3) was 20.9 to 60.2 days, the “tumor growth inhibition compared to irinotecan” value (HT29 tumor fragments; HT29 human colorectal tumor xenograft model) was “more effectively than irinotecan” and the tolerability (HT29 tumor fragments) was “well tolerated”. For the same compound, the “delay in tumor growth compared to unconjugated irinotecan” value ([2]; 60 mg/kg (irinotecan content) IV every 4 days) was “significantly better”, the “delay in tumor growth (anti-tumor activity) compared to the control” value [2] was “significantly improved when compared to the control” and the “maximum tolerated dose (MTD) compared to irinotecan” value ([3]; FIG. 22, rat and dog) was “significantly higher”. The “occurrence and/or extent and/or severity of side-effects such as neutropenia and diarrhea vs irinotecan” value ([3]; equivalent doses (FIG. 23)) was “reduced”, the “Exposure (AUC) of Irinotecan, Plasma” value [4] was 2.0 µg·days/mL and the “Exposure (AUC) of PEG-Irinotecan, Plasma” value [4] was 1213 µg·days/mL. For the same compound, the “Exposure (AUC) of PEG-SN38, Plasma” value [4] was 229 µg·days/mL, the “Exposure (AUC) of SN38, Plasma” value [4] was 2.6 µg·days/mL and the “exposure to SN-38 in colorectal tumors in comparison to irinotecan” value [5] was “two to three times logarithmic increase”. For the same compound, the “plasma levels of SN-38 compared to unmodified irinotecan” value [6] was “elevated and sustained over a longer period of time”, the “SN38 levels and AUCs after PEG-Irinotecan” value [7] was “very high AUCs” and the “neutropenia compared to irinotecan at an equivalent dose” value (neutrophils) was “reduced neutropenia”. For the same compound, the “diarrhea episodes compared to irinotecan” value [8] was “fewer diarrhea episodes”, the “t½ of PEG-Irinotecan, species comparison” value (in vivo) was “Dog > rat =” and the “exposure to irinotecan and SN38 vs dosing with irinotecan per se” value (single dose, all species examined) was “sustained and greater exposure”. For the same compound, the “AUC of PEG-Irinotecan, species comparison” value [10] was “mouse < rat < dog”, the “AUC of SN38, species comparison” value [10] was “mouse >> rat >> dog” and the “Cmax of PEG-Irinotecan, species comparison” value [10] was “mouse < rat < dog”. The “Cmax of SN38, species comparison” value [10] was “Mouse >> rat >> dog”, the “T − C” value (MCF-7 breast tumor cells; 20 mg/kg per dose x3) was greater than 52 days and the “Days to 4 Times Tumor Size” value (MCF-7 breast tumor cells; 20 mg/kg per dose x3) was greater than 72 days. The “Tumor Regression Complete” value (MCF-7 breast tumor cells; 20 mg/kg per dose x3) was 0, the “Tumor Regression Partial” value (MCF-7 breast tumor cells; 20 mg/kg per dose x3) was 0 and the “Median Duration” value (MCF-7 breast tumor cells; 40 mg/kg per dose x3) was 22.0 days. For the same compound, the “T − C” value (MCF-7 breast tumor cells; 40 mg/kg per dose x3) was greater than 52 days, the “Days to 4 Times Tumor Size” value (MCF-7 breast tumor cells; 40 mg/kg per dose x3) was greater than 72 days and the “Tumor Regression Complete” value (MCF-7 breast tumor cells; 40 mg/kg per dose x3) was 0. The “Tumor Regression Partial” value (MCF-7 breast tumor cells; 40 mg/kg per dose x3) was 1, the “T − C” value (MCF-7 breast tumor cells; 60 mg/kg per dose x3) was greater than 52 days and the “Days to 4 Times Tumor Size” value (MCF-7 breast tumor cells; 60 mg/kg per dose x3) was greater than 72 days. For the same compound, the “Tumor Regression Complete” value (MCF-7 breast tumor cells; 60 mg/kg per dose x3) was 0, the “Tumor Regression Partial” value (MCF-7 breast tumor cells; 60 mg/kg per dose x3) was 0 and the “T − C” value (MCF-7 breast tumor cells; 90 mg/kg per dose x3) was greater than 52 days. The “Tumor Regression Partial” value (MCF-7 breast tumor cells; 90 mg/kg per dose x3, <50% of size observed on Day 1) was 1, the “Median Duration” value (MCF-7 breast tumor cells; 90 mg/kg per dose x3, interval regressed tumor below 50% pretreatment size) was 49.0 days and the “Days to 4 Times Tumor Size” value (MCF-7 breast tumor cells; 90 mg/kg per dose x3) was greater than 72 days. The “Tumor Regression Complete” value (MCF-7 breast tumor cells; 90 mg/kg per dose x3, unpalpable) was 0, the “T-C value compared with irinotecan treatment groups” value (MCF-7 breast tumor cells; all 4 dose levels, p<0.001) was “significantly higher” and the tumor regrowth (MCF-7 breast tumor cells; any dose level (FIG. 15A)) was “No tumor regrowth occurred”.
For `CCc1c2c(nc3ccc(OC(=O)N4CCC(N5CCCCC5)CC4)cc13)-c1cc3c(c(=O)n1C2)COC(=O)[C@]3(O)CC` [irinotecan, 7-ethyl-10[4-(1-piperidino)-1-piperidino] carbonyloxy CPT, reference compound], the “Exposure (AUC) of Irinotecan, Plasma” value [1] was 0.3 µg·days/mL, the “Exposure (AUC) of SN38, Plasma” value [1] was 0.01 µg·days/mL and the Tumor growth delay (HT29 tumor fragments; q4 d×3) was 0.3 to 1.6 days. The tolerability (HT29 tumor fragments) was “well tolerated”, the “delay in tumor growth (anti-tumor activity) compared to the control” value [2] was “significantly improved when compared to the control” and the “Exposure (AUC) of Irinotecan, Plasma” value [4] was 0.5 µg·days/mL. For the same compound, the “Exposure (AUC) of SN38, Plasma” value [4] was 0.2 µg·days/mL, the “Days to 4 Times Tumor Size” value (MCF-7 breast tumor cells; 20 mg/kg per dose x3) was 40.2 days and the “Tumor Regression Complete” value (MCF-7 breast tumor cells; 20 mg/kg per dose x3) was 0. The “Tumor Regression Partial” value (MCF-7 breast tumor cells; 20 mg/kg per dose x3) was 0, the “Median Duration” value (MCF-7 breast tumor cells; 40 mg/kg per dose x3) was 42.0 days and the “Days to 4 Times Tumor Size” value (MCF-7 breast tumor cells; 40 mg/kg per dose x3) was 42.8 days. The “Tumor Regression Complete” value (MCF-7 breast tumor cells; 40 mg/kg per dose x3) was 0 and the “Tumor Regression Partial” value (MCF-7 breast tumor cells; 40 mg/kg per dose x3) was 1.
With `CC(=O)O[C@@]12CO[C@@H]1C[C@H](O)[C@@]1(C)C(=O)[C@H](O)C3=C(C)[C@@H](OC(=O)[C@H](O)[C@@H](NC(=O)OC(C)(C)C)c4ccccc4)C[C@@](O)([C@@H](OC(=O)c4ccccc4)[C@H]21)C3(C)C` [docetaxel] the MTD at 78 day [9] was no more than 30 mg/kg, the “time after which tumors did recover and grow” value (DU-145 prostate tumors) was 30 to 50 days and the “anti-tumor effect on tumor growth” value (DU-145 prostate tumors; all 3 doses tested, 78 day observation period) was “good activity”. The MTD (in vivo) was no more than 30 mg/kg.
